From patent US20210338699A1 (priority 2018, published 2021)
Where two headings read alike, the source gives them in different places.

Key:
[1] = tested on: cells expressing FLT3-ITD (FLT3N51); test: Proliferation by [3H] thymidine incorporation, FLT3-ITD cells; assay type: cell-based; conditions: absence of growth factors, 48 hours
Experimental: (§1) FIG. 9A. […] After 48 hours, proliferation was evaluated by [^3H] thymidine incorporation.
(§2) In order to illustrate the imatinib resistance, very high dose of imatinib were used in these cells.

leukemic mice = test: Survival of leukemic mice treated with ROCK inhibitors; assay type: in vivo
From the text: Increased ROCK activity is associated with cardiovascular disease (CVD).

cells expressing BCR-ABL = test: Proliferation by [3H] thymidine incorporation, BCR-ABL cells; assay type: cell-based; conditions: absence of growth factors, 48 hours
Experimental: as §1
FIG. 12A. Graph illustrating the effect of ROCK inhibitor (H-1152) alone or in combination with imatinib on proliferation of myeloid cells expressing BCR-ABL.
as §2
Referring now to FIG. 11, primary CML patient derived cells were examined and a human cell line bearing BCR-ABL (K562) was used as a positive control.

[2] = tested on: blood vessel permeability; conditions: mouse, in vivo; cited from earlier work
ROCK = conditions: cited from earlier work
[3] = tested on: cancer patients including AML patients; conditions: within 9 years of DOX treatment; cited from earlier work
AML mice = tested on: AML mice
From the text: Three different sources of donor cells will be utilized: 1) WT LSK cells; 2) Tet2^−/−FLT3^ITD/+ LSK cells; and 3) Dnmt3a^−/−FLT3^ITD/+ LSK cells. Lethally irradiated CD45.1^+ (BoyJ) recipient mice of the above described 5 genotypes will be transplanted with CD45.2^+WT, Tet2^−/−FLT3^ITD/+ or Dnmt3a^−/−FLT3^TID/+ leukemic cells along with CD45.1^+ normal cells in 1:1 ratio pooled from 2-3 mice of either gender at 4 months of age. 2 months posttransplant, the development of AML in these mice will be assessed by analysing peripheral blood. Mice will be randomly assigned into two groups: 1) vehicle; and 2) intraperitoneal injection (IP) of DOX 8 mg/kg/week for 3 weeks. This treatment is based on the previously described approach. […] Alternatively, mice will be subjected to 5 IP injections of DOX (5 mg/Kg) with one-week intervals for a cumulative dose of 25 mg/kg over a period of 5 weeks. […] Relapse of these mice will be monitored closely and DOX will be re-administered and then be compared for CTX.

WT and ROCK1^−/− mice = test: Serial doxorubicin administration, DOX-induced CTX in WT and ROCK1−/− mice
Experimental: FIG. 1A. Schematic diagram representing serial doxorubicin administration protocol. WT and ROCK1^−/− mice received three serial injections weekly of normal saline (NS) or doxorubicin (DOX) (8 mg/kg). […]
The generation of ROCK1 deficient mice have been previously reported. […] To assess if a deficiency of ROCK1 protects the mice from DOX induced CTX, control (WT) and ROCK1^−/− mice were injected with 8 mg/kg of DOX or normal saline (NS) once weekly for 3 consecutive weeks, for a cumulative dose of 24 mg/kg (FIG. 1A). This treatment is based on the previously described approach, which causes progressive cardiac dysfunction within three weeks after the initial injection, a scenario that mimics early-onset of DOX-induced CTX in humans.
To elucidate the role of ROCK1 in DOX induced CTX, ROCK1^−/− mice were treated with DOX in parallel to the WT mice.
During autophagy, the cytosolic form of microtubule-associated protein 1 light chain 3 (LC3-I) is conjugated to phosphatidylethanolamine to form LC3-II, which is recruited to autophagosomal membranes.

[4] = tested on: MHC-Cre/ROCK1^fl/fl and ROCK1^fl/fl mice; test: DOX-induced CTX in cardiomyocyte-specific ROCK1 knockout mice; assay type: in vivo; conditions: three weekly injections 8 mg/kg, day 21
Experimental: FIG. 7A. Graph illustrating the percent fractional shortening (FS) of cardiomyocyte-specific ROCK1 knockout mice (MHC-Cre/ROCKfl/fl) and ROCK1fl/fl mice (8-9 weeks old) after receiving three serial injections weekly of NS or DOX (8 mg/kg). Cardiac function was measured by echocardiography analysis on day 21 after the initial injection.
FIG. 7B. Graph illustrating total TUNEL positive nuclei per 10^5 total nuclei in ventricular myocardium from MHC-Cre/ROCK^fl/fl and ROCK1^fl/fl mice hearts on day 21. N=4-6 in each group.
FIG. 7C. Representative heart sections stained with picrosirius red/Fast green illustrating the collagen deposition in ventricular myocardium of MHC-Cre/ROCK^fl/fl and ROCK1^fl/fl mice hearts on day 21. N=4-6 in each group.
To determine if ROCK1 in cardiomyocytes has a role in DOX-induced CTX, cardiomyocyte-specific ROCK1 knockout mice were generated. In myosin heavy chain (MHC)-Cre/ROCK1^fl/fl mice, the ROCK1 protein is truncated only in cardiomyocytes from residue 137 to the end of the protein (FIGS. 6A, 6B). Similar to ROCK1^−/− mice in which the ROCK1 protein is also truncated from residue 180 to the end of the protein in all cells, the conditional targeting approach results in the removal of a large portion of the kinase domain and amino acids from the coiled-coil and the PH domains. […]

[5] = tested on: fibroblasts from WT and ROCK1^−/− mice; test: Ponatinib treatment of WT and ROCK1−/− fibroblasts; assay type: cell-based

O=S(=O)(c1cccc2cnccc12)N1CCCNCC1 [Fasudil]
constitutive growth (thymidine incorporation) [1]: similarly repress the growth | survival of leukemic mice (leukemic mice; compared to vehicle treated): significant enhancement in survival | anti-leukemic activity (leukemic mice; in vivo models of AML): potent anti-leukemic activity | constitutive growth (thymidine incorporation) (cells expressing BCR-ABL): similarly repress the growth

Cc1nc(Nc2ncc(C(=O)Nc3c(C)cccc3Cl)s2)cc(N2CCN(CCO)CC2)n1 [dasatinib]
amount of Evans Blue in the small intestine [2]: significantly increases

CC(C)c1c(C(=O)Nc2ccccc2)c(-c2ccccc2)c(-c2ccc(F)cc2)n1CC[C@@H](O)C[C@@H](O)CC(=O)O [atorvastatin]
ROCK activity (ROCK; patients with atherosclerosis): inhibits ROCK activity

C[C@@H](N)[C@H]1CC[C@H](C(=O)Nc2ccncc2)CC1 [Y27632]
constitutive growth (thymidine incorporation) [1]: similarly repress the growth | constitutive growth (thymidine incorporation) (cells expressing BCR-ABL): similarly repress the growth

COc1cccc2c1C(=O)c1c(O)c3c(c(O)c1C2=O)C[C@@](O)(C(=O)CO)C[C@@H]3O[C@H]1C[C@H](N)[C@H](O)[C@H](C)O1 [DOX, doxorubicin]
patients with clinical or sub-clinical manifestation of heart failure [3]: 6-18% | AML response (AML mice; IP 8 mg/kg/week for 3 weeks): complete remission of AML | CTX (AML mice; mouse, in vivo, ip, 8 mg/kg): severe CTX including dysfunction | mortality rate (WT and ROCK1^−/− mice; ROCK1 deficient mice, at 3 months): 55% | mortality rate (WT and ROCK1^−/− mice; ROCK1 deficient mice, at 6 months): 70% | mortality rate (WT and ROCK1^−/− mice; ROCK1−/− mice, over 6 weeks after initial DOX injection): about 10% | death of all treated mice (WT and ROCK1^−/− mice; WT mice): died within 3 months | mortality rate (WT and ROCK1^−/− mice; WT mice, over 6 weeks after initial DOX injection): about 70% | Bax levels (WT and ROCK1^−/− mice; mouse, in vivo): increased | autophagosomes by transmission electron microscopy (WT and ROCK1^−/− mice; mouse, in vivo): more accumulation of autophagosomes | body weight (WT and ROCK1^−/− mice; mouse, in vivo): significant impact | cardiac fibrosis (WT and ROCK1^−/− mice; mouse, in vivo): increased | cardiac function (WT and ROCK1^−/− mice; mouse, in vivo): preserved | cardiac function (percent fractional shortening) (WT and ROCK1^−/− mice; mouse, in vivo): impaired | cardiomyocyte size (WT and ROCK1^−/− mice; mouse, in vivo): significant impact | characteristics of DOX-induced CTX (TUNEL, Bax translocation, fibrosis) (WT and ROCK1^−/− mice; mouse, in vivo): effectively blocked | heart weight (WT and ROCK1^−/− mice; mouse, in vivo): significant impact | mitochondrial translocation of Bax (WT and ROCK1^−/− mice; mouse, in vivo): increased | number of TUNEL positive cardiac cells (WT and ROCK1^−/− mice; mouse, in vivo): significantly increased | DOX-induced LV dilation (WT and ROCK1^−/− mice; mouse, in vivo, 8 mg/kg): blocked | LV contractile function (LV fractional shortening, FS) (WT and ROCK1^−/− mice; mouse, in vivo, 8 mg/kg): reduced | left ventricular (LV) dilation (LVESD, LVEDD) by echocardiogram (WT and ROCK1^−/− mice; mouse, in vivo, 8 mg/kg): reproducible and progressive left ventricular (LV) dilation | cardiotoxic events (cardiac dysfunction, TUNEL positivity, cardiac fibrosis) ([4]; MHC-Cre/ROCK1fl/fl mice): significantly reduced | cardiotoxic events (cardiac dysfunction, TUNEL positivity, cardiac fibrosis) ([4]; ROCK1fl/fl hearts): induced cardiac dysfunction, increased TUNEL positivity and cardiac fibrosis

Cc1ccc(C(=O)Nc2ccc(CN3CCN(C)CC3)c(C(F)(F)F)c2)cc1C#Cc1cnc2cccnn12 [ponatinib]
cell survival ([5]; ROCK1−/− cells): enhanced survival | cleaved caspase 3/8 levels ([5]; ROCK1−/− cells): profound decrease | ponatinib induced cell shape changes ([5]; ROCK1−/− fibroblasts): not the case | cleaved caspase 8/3 levels ([5]; WT fibroblasts): profound increase | ponatinib induced cell shape changes ([5]; WT fibroblasts, increasing doses): significant changes

[N]=O [NO, nitric oxide]
ROCK activity (ROCK; patients with CVD, exogenous NO): inhibits ROCK activity
